Results reported in ChEMBL document CHEMBL1201862, “PubChem BioAssay data set” (2004).
The source made the active and inactive calls.

Legend:
[1] = microbe, parasite or virus in culture; assay type: functional; settings: Mycobacterium tuberculosis
[2] = Vero E6 cell cytotoxicity, dose response, cytotoxicity control for non-replicating M. tuberculosis project, secondary assay (AID 492998); assay type: functional, VeroE6; settings: Vero C1008
[3] = THP-1 cell cytotoxicity, dose response, cytotoxicity control for non-replicating M. tuberculosis project (AID 489025); assay type: functional
[4] = cells; assay type: functional
[5] = target: Eukaryotic translation initiation factor 4E (Mus musculus, UniProt P63073); assay: eIF4E–eIF4G protein interaction inhibitors, dose response, biochemical, TR-FRET (AID 855); assay type: functional;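 note: potency for disrupting eIF4E binding to eIF4GI seen as loss of FRET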
[6] = target: SUMO-activating enzyme (Homo sapiens, UniProt Q9UBT2); assay: SUMOylation inhibitor hit validation, confirmation, SUMOylation inhibitor project, biochemical, AlphaScreen (AID 2018); assay type: functional
[7] = target: T1, Coagulation factor XII (Homo sapiens, UniProt P00748); assay type: functional;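 note: activated factor XIIa alpha cleaving a fluorogenic AMC peptide substrate; inhibitor potency from loss of enzyme activity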
T1 sequence (P00748 whole entry): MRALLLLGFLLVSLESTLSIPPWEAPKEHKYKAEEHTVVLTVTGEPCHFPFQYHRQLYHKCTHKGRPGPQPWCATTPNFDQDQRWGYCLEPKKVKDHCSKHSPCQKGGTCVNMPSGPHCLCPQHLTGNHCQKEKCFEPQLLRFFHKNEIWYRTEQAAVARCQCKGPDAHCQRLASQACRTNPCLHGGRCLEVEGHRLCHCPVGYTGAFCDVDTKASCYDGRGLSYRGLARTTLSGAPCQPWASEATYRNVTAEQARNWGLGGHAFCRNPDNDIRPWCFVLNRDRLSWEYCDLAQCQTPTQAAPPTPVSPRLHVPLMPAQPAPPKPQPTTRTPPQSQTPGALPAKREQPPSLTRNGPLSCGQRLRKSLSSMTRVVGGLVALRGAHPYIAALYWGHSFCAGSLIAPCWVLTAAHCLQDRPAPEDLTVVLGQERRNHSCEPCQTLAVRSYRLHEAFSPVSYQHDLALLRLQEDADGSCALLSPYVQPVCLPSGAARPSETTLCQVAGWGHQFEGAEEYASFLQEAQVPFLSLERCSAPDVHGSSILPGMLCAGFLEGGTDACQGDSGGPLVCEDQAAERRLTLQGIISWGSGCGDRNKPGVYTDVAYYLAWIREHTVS

[8] = target: T2, Microphthalmia-associated transcription factor (Homo sapiens, UniProt O75030); assay: TRPM1 promoter luciferase signal decrease, dose response, MITF inhibitor project, cell-based, SK-MEL-5, cherry-picked, set 3 (AID 493073); assay type: functional
T2 sequence (O75030 whole entry): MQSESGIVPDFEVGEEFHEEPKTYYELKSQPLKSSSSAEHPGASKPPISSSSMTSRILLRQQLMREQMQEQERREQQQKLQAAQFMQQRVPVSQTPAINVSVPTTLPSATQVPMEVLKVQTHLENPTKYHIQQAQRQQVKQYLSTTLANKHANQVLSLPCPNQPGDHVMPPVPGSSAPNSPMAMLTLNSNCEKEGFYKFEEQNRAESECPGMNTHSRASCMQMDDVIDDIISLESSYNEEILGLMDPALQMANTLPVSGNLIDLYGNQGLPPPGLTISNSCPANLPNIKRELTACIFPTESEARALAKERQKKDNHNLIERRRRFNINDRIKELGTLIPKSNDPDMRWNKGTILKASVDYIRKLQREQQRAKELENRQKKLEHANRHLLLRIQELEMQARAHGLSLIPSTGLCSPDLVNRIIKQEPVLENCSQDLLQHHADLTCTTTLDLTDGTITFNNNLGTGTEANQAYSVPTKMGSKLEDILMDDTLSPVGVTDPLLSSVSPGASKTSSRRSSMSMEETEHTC

[9] = target: T3, Caspase-6 (Homo sapiens, UniProt P55212); assay: human caspase-6 inhibitors, dose response, biochemical, VEID-R110 fluorescence, cherry-pick (AID 720632)
T3 sequence (P55212 whole entry): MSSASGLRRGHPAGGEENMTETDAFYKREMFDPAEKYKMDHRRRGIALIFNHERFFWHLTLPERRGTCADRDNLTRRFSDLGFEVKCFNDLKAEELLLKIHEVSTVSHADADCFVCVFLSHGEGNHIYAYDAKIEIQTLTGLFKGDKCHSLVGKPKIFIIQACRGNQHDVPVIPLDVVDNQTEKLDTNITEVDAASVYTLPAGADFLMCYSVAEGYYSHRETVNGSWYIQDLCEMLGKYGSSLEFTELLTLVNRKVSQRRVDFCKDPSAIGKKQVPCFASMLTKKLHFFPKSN

[10] = target: Paired box protein Pax-8 (Homo sapiens, UniProt Q06710); assay: inhibitors of PAX8-driven TPO luciferase reporter, dose response, RMG-I cells, cherry-pick (AID 687027); assay type: functional, cell-based;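 note: luciferase reporter driven by Pax8 target thyroperoxidase promoter measured by SteadyGlo luminescence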
[11] = system: HEK293; assay: cells; settings: Homo sapiens
[12] = target: Induced myeloid leukemia cell differentiation protein Mcl-1 (Homo sapiens, UniProt Q07820); assay type: functional
[13] = system: INS1; assay: beta cell apoptosis inhibitors, cytokine rescue, dose response, luminescence, retest (AID 449756); assay type: functional, cell-based; settings: Rattus norvegicus;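 note: cell death triggered by IL-1 beta plus TNF-alpha plus IFN-gamma mixture; protective hits raise ATP signal compared with cytokine alone wells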
[14] = Luminescence Cell-Based Dose Retest to Confirm Inhibitors of Cancer Stem Cells. [Related pubchem assays (depositor defined):AID2717, AID2721]; assay type: functional; settings: Homo sapiens
[15] = system: Vero; assay: cells; assay type: functional, cell-based; settings: Chlorocebus sabaeus
[16] = system: Vero; assay: cells; assay type: functional; settings: Chlorocebus sabaeus
[17] = system: HEK293; assay: cells; settings: Homo sapiens; remark: listed apart in the source
[18] = target: T4, Heat shock factor protein 1 (Mus musculus, UniProt P38532); assay: HSF1 potentiators in luciferase reporter cells, confirmation, cell-based, NIH3T3, luminescence, dose retest (AID 435004); assay type: functional;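 note: stress induced by proteasome inhibitor MG132 added 30 min after compound; luciferase reporter driven by HSF1 response element in NIH3T3 cells; actives raise luminescence as potentiators of the MG132 stress response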
T4 sequence (P38532 whole entry): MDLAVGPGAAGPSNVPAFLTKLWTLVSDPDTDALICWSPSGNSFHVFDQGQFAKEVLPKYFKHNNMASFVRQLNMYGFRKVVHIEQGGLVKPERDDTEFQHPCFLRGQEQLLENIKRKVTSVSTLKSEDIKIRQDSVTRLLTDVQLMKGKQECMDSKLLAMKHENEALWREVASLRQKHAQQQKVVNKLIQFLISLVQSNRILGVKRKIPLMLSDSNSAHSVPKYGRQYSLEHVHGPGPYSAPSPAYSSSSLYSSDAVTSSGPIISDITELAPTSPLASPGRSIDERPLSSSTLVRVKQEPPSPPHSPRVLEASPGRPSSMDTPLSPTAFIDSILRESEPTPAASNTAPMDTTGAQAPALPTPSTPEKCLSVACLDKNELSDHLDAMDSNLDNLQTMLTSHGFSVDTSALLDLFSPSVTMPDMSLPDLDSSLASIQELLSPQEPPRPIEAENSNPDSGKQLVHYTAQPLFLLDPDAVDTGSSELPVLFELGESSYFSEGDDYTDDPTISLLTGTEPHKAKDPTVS

[19] = target: T5, Replicative DNA helicase DnaB (Mycobacterium tuberculosis, UniProt P9WMR3); assay: DnaB intein splicing inhibitors, dose response, biochemical, cell-free fluorescence (AID 449749); assay type: functional
T5 sequence (P9WMR3 whole entry): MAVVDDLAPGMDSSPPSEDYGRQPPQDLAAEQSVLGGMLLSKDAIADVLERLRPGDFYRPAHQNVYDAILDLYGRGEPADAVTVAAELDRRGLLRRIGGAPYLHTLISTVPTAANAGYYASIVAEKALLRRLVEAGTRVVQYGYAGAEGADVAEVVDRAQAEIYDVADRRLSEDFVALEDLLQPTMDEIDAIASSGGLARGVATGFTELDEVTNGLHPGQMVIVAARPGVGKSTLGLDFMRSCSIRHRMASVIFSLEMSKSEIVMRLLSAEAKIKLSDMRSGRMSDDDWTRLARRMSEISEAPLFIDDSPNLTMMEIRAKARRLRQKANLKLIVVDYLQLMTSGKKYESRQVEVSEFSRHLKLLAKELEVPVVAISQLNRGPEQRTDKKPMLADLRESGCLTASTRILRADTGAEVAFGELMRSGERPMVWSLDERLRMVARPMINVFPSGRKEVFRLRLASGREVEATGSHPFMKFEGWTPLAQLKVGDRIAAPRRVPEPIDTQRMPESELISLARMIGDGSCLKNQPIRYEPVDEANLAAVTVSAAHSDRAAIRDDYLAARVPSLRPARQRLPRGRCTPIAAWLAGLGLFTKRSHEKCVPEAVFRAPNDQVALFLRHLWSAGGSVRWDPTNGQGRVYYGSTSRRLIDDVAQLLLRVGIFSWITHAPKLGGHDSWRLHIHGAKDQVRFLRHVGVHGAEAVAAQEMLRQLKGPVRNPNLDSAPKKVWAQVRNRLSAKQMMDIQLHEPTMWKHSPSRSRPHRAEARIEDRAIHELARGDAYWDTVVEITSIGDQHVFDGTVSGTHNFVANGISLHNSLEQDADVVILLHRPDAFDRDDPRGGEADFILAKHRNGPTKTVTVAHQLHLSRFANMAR

[20] = Shn3 3'UTR reporter inhibitors, dose response, cell-based, Clone20 osteoblasts, firefly luciferase, cherry-picked (AID 624132); assay type: functional;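 note: firefly luciferase luminescence from reporter carrying the Shn3 3'UTR in osteoblasts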
[21] = target: T6, Protein RecA (Mycobacterium tuberculosis, UniProt P9WHJ3); assay: Fluorescence Cell-Free Homogeneous Dose Retest to Identify Inhibitors of RecA-Intein Splicing Activity. [Related pubchem assays (depositor defined):AID2097, AID2223, AID489010, AID492950]; assay type: functional
T6 sequence (P9WHJ3 whole entry): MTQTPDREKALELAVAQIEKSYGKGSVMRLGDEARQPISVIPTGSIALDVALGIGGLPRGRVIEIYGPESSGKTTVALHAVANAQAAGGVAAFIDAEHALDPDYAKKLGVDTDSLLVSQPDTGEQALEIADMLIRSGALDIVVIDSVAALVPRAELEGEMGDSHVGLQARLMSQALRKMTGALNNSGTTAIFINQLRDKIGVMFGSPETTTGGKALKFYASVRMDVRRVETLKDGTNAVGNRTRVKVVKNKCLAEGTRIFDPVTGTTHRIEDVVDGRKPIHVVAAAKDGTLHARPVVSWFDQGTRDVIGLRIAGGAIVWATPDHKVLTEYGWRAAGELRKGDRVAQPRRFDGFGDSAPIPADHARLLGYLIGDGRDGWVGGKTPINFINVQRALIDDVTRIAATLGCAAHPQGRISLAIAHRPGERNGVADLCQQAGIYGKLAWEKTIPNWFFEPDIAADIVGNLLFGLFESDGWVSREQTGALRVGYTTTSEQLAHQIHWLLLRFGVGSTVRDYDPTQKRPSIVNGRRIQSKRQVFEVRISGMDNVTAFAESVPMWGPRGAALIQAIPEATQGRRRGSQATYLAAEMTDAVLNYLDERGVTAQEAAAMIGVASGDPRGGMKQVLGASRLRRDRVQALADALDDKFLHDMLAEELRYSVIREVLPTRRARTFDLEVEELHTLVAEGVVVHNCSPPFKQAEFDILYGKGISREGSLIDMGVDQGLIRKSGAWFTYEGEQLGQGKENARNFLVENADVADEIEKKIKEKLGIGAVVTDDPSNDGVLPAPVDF

[22] = control 3'UTR Renilla luciferase suppression, dose response, counter-screen for Shn3 inhibitor project, cell-based, Clone20-Shn3RL, cherry-picked (AID 624133); assay type: functional
[23] = HepG2 cell cytotoxicity, dose response, cytotoxicity control for Shn3 inhibitor project, CellTiter-Glo, cherry-picked (AID 624134); assay type: functional, cell-based

Chain of Induced myeloid leukemia cell differentiation protein Mcl-1 (Q07820 whole entry): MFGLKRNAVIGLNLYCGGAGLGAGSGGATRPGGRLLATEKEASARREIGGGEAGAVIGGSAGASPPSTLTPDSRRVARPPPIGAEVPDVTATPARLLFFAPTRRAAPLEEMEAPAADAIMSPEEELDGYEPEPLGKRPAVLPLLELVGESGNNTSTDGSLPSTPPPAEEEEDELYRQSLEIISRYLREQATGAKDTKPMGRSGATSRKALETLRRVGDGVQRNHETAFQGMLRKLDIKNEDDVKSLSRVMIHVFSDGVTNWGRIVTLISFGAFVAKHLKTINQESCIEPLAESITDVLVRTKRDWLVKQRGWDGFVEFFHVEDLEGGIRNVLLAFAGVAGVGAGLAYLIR
Chain of Eukaryotic translation initiation factor 4E (P63073 whole entry): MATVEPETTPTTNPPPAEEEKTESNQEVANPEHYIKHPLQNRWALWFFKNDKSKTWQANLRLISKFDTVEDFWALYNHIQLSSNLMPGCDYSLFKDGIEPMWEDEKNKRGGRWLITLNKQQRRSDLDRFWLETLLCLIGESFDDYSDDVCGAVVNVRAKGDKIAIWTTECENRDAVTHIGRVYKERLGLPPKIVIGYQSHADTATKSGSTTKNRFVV
Chain of SUMO-activating enzyme (Q9UBE0 whole entry): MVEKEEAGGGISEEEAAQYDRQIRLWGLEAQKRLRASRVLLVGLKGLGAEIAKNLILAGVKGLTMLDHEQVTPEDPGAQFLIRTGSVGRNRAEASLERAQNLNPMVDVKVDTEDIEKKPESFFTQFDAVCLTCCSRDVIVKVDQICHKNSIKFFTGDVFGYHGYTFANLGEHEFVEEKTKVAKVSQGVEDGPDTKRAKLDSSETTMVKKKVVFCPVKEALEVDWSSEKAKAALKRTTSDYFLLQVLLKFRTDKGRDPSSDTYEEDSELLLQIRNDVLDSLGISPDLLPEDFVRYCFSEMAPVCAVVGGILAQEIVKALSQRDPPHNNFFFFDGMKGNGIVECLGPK
Chain of SUMO-activating enzyme (Q9UBT2 whole entry): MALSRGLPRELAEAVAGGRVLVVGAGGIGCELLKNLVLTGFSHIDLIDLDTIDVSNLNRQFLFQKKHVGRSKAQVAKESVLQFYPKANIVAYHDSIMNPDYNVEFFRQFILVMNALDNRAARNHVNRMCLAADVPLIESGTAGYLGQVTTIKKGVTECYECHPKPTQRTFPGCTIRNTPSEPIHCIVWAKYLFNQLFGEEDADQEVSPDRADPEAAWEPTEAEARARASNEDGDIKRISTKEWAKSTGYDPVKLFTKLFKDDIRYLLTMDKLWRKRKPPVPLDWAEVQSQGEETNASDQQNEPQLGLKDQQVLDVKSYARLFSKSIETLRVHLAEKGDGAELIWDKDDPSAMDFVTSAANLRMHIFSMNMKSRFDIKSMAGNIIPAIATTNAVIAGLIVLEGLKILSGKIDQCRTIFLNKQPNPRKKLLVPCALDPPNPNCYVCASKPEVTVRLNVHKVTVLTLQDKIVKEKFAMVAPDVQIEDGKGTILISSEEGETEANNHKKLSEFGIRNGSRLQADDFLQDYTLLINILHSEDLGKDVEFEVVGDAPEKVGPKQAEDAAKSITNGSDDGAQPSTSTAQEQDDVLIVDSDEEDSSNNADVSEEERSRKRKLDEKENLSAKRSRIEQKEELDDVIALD
Chain of Paired box protein Pax-8 (Q06710 whole entry): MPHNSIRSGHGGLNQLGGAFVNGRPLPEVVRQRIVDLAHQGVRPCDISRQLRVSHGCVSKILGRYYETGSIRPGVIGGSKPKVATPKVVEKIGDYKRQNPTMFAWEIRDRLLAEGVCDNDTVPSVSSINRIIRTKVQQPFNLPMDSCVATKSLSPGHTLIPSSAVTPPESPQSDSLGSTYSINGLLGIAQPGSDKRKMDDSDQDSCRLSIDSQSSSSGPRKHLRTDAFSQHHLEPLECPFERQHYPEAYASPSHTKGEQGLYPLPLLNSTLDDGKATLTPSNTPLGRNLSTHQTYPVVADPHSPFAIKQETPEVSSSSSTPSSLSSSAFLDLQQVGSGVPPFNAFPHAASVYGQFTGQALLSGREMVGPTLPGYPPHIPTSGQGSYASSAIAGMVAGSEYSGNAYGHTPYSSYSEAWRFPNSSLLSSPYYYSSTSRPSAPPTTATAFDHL

With CSc1ccc(C(=O)C2CCCN(C(=O)c3ccc4c(c3)no[n+]4[O-])C2)cc1 (stereo not drawn) the CC50 [1] was 10.8 µM (active), the CC50 [2] was 13.7 µM (active) and the CC50 [3] was 39.4 µM (active). For the same molecule, the IC50 [4] was 1.5 µM (active).

In the case of COc1cc(OC)c(/C=N/NC(=O)c2ccc(NC(C)=O)cc2)cc1Br, the IC50 [5] is reported as 50 µM (inactive) and the IC50 [6] is reported as 22.1 µM (active).

With O=C1c2oc3ccccc3c(=O)c2C(c2cccc(F)c2)N1CCCO (stereo not drawn) the IC50 [7] was > 50 µM (inactive).

With CC(=O)N1CCc2c(sc(NC(=O)c3ccc([N+](=O)[O-])o3)c2C#N)C1 the AC50 [8] was 2.22 µM (active), the AC50 [9] was 26.6 µM (active) and the AC50 [10] was 2.71 µM (active).

In the case of Sc1nnc(-c2cc(-c3ccccc3)[nH]n2)n1/N=C/C(Br)=C/c1ccccc1, the EC50 [11] is reported as > 59.6 µM (inactive), the IC50 [12] is reported as 4.97 µM (active) and the AC50 [13] is reported as 9.04 µM (active). The AC50 [14] was 614 nM (active), the IC50 [15] was 6.87 µM (active) and the CC50 [16] was > 25 µM (active). For the same molecule, the EC50 [17] was > 59.6 µM (inactive) and the EC50 [18] was 2.65 µM (inconclusive).

In the case of COC(=O)/C(=C1/Oc2cc(C)oc(=O)c2S1)C(F)(F)F, the AC50 [19] is reported as > 380 µM (inactive), the AC50 [20] is reported as 4.64 µM (active) and the EC50 [21] is reported as 3.74 µM (active). The CC50 [1] was 9.91 µM (active), the AC50 [22] was 16.6 µM (active) and the CC50 [2] was 7.26 µM (active). For the same molecule, the CC50 [3] was 10.2 µM (active), the IC50 [4] was 1.64 µM (active) and the AC50 [23] was 43 µM (active).

For O=C(Nc1cc(=O)[nH]c2ncnn12)c1ccco1, the IC50 [7] was > 50 µM (inactive).
